According to patent publication US6114310A, “Efflux pump inhibitors” (priority 1998, dated 2000):

Tested on: Pseudomonas aeruginosa PAM1001
Experiment: microbe, parasite or virus in culture
Type: cell-based
Experimental: The activity of efflux pump inhibitors (EPI) in combination with fluoroquinolones, such as levofloxacin, is assessed by the checkerboard assay (Antimicrobial Combinations. In Antibiotics in Laboratory Medicine, Ed. Victor Lorian, M. D., Fourth edition, 1996, pp 333-338) using broth microdilution method performed as recommended by the NCCLS (National Committee for Clinical Laboratory Standards (NCCLS). 1997. Methods for Dilution of Antimicrobial Susceptibility Tests for Bacteria That Grow Aerobically--Fourth Edition; Approved Standard. NCCLS Document M7-A4, Vol 17 No.2). The test organism used is Pseudomonas aeruginosa PAM1001.
In this assay, multiple dilutions of two drugs, namely the EPI and levofloxacin, are being tested, alone and in combination, at concentrations equal to, above and below their respective minimal inhibitory concentrations (MICs).
Stock solutions are further diluted, according to the needs of a particular assay, in Mueller Hinton Broth (MHB). Stock solution can be stored at -80° C. Quinolones are solubilized according to the instructions of the manufacturers, at a concentration of 1 mg/ml. They are then further diluted in MHB. Stock solution can be stored at -80° C.
The checkerboard assay is performed in microtiter plates. Levofloxacin is diluted in the x axis, each column containing a single concentration of levofloxacin. The EPI is diluted in the y axis, each row containing an equal concentration of EPI. The result of these manipulations is that each well of the microtiter plate contains a unique combination of concentrations of the two agents. Each EPI are tested independently.
The assay is performed in MHB with a final bacterial inoculum of 5×10^5 CFU/ml (from an early-log phase culture). Microtiter plates are incubated during 20 h at 35° C. and are read using a microtiterplate reader (Molecular Devices) at 650 nm as well as visual observation using a microtiterplate reading mirror.

D-Lysyl-β-N-(Cyclohexylmethyl)alanine Quinoline-3-amide Trifluoroacetate [Example 18]
Levofloxacin MIC Against P. aeruginosa PAM1001 in Presence of Efflux Pump Inhibitor (EPI), Minimum Inhibitory Concentration (Table 1, EPI Conc. 0 μg/ml): 4 µg/mL
Levofloxacin MIC Against P. aeruginosa PAM1001 in Presence of Efflux Pump Inhibitor (EPI), Minimum Inhibitory Concentration (Table 1, EPI Conc. 0.625 μg/ml): 4 µg/mL
Levofloxacin MIC Against P. aeruginosa PAM1001 in Presence of Efflux Pump Inhibitor (EPI), Minimum Inhibitory Concentration (Table 1, EPI Conc. 5 μg/ml): 4 µg/mL
Levofloxacin MIC Against P. aeruginosa PAM1001 in Presence of Efflux Pump Inhibitor (EPI), Minimum Inhibitory Concentration (Table 1, EPI Conc. 10 μg/ml): 2 µg/mL
Levofloxacin MIC Against P. aeruginosa PAM1001 in Presence of Efflux Pump Inhibitor (EPI), Minimum Inhibitory Concentration (Table 1, EPI Conc. 40 μg/ml): 0.25 µg/mL
Levofloxacin MIC Against P. aeruginosa PAM1001 in Presence of Efflux Pump Inhibitor (EPI), Minimum Inhibitory Concentration (Table 1, EPI Conc. […]): 4 µg/mL
Levofloxacin MIC Against P. aeruginosa PAM1001 in Presence of Efflux Pump Inhibitor (EPI), Minimum Inhibitory Concentration (Table 1, EPI Conc. μg/ml (number not given; column between 10 and 40 μg/ml)): 0.50 µg/mL
Levofloxacin MIC Against P. aeruginosa PAM1001 in Presence of Efflux Pump Inhibitor (EPI), Minimum Inhibitory Concentration (Table 2, EPI Conc. 0 μg/ml): 4 µg/mL
Levofloxacin MIC Against P. aeruginosa PAM1001 in Presence of Efflux Pump Inhibitor (EPI), Minimum Inhibitory Concentration (Table 2, EPI Conc. 0.625 μg/ml): 4 µg/mL
Levofloxacin MIC Against P. aeruginosa PAM1001 in Presence of Efflux Pump Inhibitor (EPI), Minimum Inhibitory Concentration (Table 2, EPI Conc. 5 μg/ml): 4 µg/mL
Levofloxacin MIC Against P. aeruginosa PAM1001 in Presence of Efflux Pump Inhibitor (EPI), Minimum Inhibitory Concentration (Table 2, EPI Conc. 10 μg/ml): 2 µg/mL
Levofloxacin MIC Against P. aeruginosa PAM1001 in Presence of Efflux Pump Inhibitor (EPI), Minimum Inhibitory Concentration (Table 2, EPI Conc. 40 μg/ml): 0.125 µg/mL
Levofloxacin MIC Against P. aeruginosa PAM1001 in Presence of Efflux Pump Inhibitor (EPI), Minimum Inhibitory Concentration (Table 2, EPI Conc. […]): 4 µg/mL
Levofloxacin MIC Against P. aeruginosa PAM1001 in Presence of Efflux Pump Inhibitor (EPI), Minimum Inhibitory Concentration (Table 2, EPI Conc. μg/ml (number not given; column between 10 and 40 μg/ml)): 0.125 µg/mL
Levofloxacin MIC Against P. aeruginosa PAM1001 in Presence of Efflux Pump Inhibitor (EPI), Minimum Inhibitory Concentration (Table 3, EPI Conc. 0 μg/ml): 4 µg/mL
Levofloxacin MIC Against P. aeruginosa PAM1001 in Presence of Efflux Pump Inhibitor (EPI), Minimum Inhibitory Concentration (Table 3, EPI Conc. 0.625 μg/ml): 4 µg/mL
Levofloxacin MIC Against P. aeruginosa PAM1001 in Presence of Efflux Pump Inhibitor (EPI), Minimum Inhibitory Concentration (Table 3, EPI Conc. 5 μg/ml): 1 µg/mL
Levofloxacin MIC Against P. aeruginosa PAM1001 in Presence of Efflux Pump Inhibitor (EPI), Minimum Inhibitory Concentration (Table 3, EPI Conc. 10 μg/ml): 0.50 µg/mL
Levofloxacin MIC Against P. aeruginosa PAM1001 in Presence of Efflux Pump Inhibitor (EPI), Minimum Inhibitory Concentration (Table 3, EPI Conc. 40 μg/ml): 0.03 µg/mL
Levofloxacin MIC Against P. aeruginosa PAM1001 in Presence of Efflux Pump Inhibitor (EPI), Minimum Inhibitory Concentration (Table 3, EPI Conc. μg/ml (number not given; column between 10 and 40 μg/ml)): 0.03 µg/mL
Levofloxacin MIC Against P. aeruginosa PAM1001 in Presence of Efflux Pump Inhibitor (EPI), Minimum Inhibitory Concentration (Table 4, EPI Conc. 0 μg/ml): 4 µg/mL
Levofloxacin MIC Against P. aeruginosa PAM1001 in Presence of Efflux Pump Inhibitor (EPI), Minimum Inhibitory Concentration (Table 4, EPI Conc. 0.625 μg/ml): 4 µg/mL
Levofloxacin MIC Against P. aeruginosa PAM1001 in Presence of Efflux Pump Inhibitor (EPI), Minimum Inhibitory Concentration (Table 4, EPI Conc. 5 μg/ml): 2 µg/mL
Levofloxacin MIC Against P. aeruginosa PAM1001 in Presence of Efflux Pump Inhibitor (EPI), Minimum Inhibitory Concentration (Table 4, EPI Conc. 10 μg/ml): 0.50 µg/mL
Levofloxacin MIC Against P. aeruginosa PAM1001 in Presence of Efflux Pump Inhibitor (EPI), Minimum Inhibitory Concentration (Table 4, EPI Conc. 40 μg/ml): 0.25 µg/mL
Levofloxacin MIC Against P. aeruginosa PAM1001 in Presence of Efflux Pump Inhibitor (EPI), Minimum Inhibitory Concentration (Table 4, EPI Conc. […]): 4 µg/mL
Levofloxacin MIC Against P. aeruginosa PAM1001 in Presence of Efflux Pump Inhibitor (EPI), Minimum Inhibitory Concentration (Table 4, EPI Conc. μg/ml (number not given; column between 10 and 40 μg/ml)): 0.125 µg/mL

C[C@H]1COc2c(N3CCN(C)CC3)c(F)cc3c(=O)c(C(=O)O)cn1c23 [levofloxacin, reference compound]
MIC (Pseudomonas aeruginosa, PAM1001, read-out: MIC of levofloxacin against P. aeruginosa PAM1001): 4 µg/mL
